Assay [1] deals with A549. Kind of assay: Cytotoxicity against human A549 cells by MTT assay. It is filed as functional, cell-based.
A further assay has as its system HaCaT. Kind of assay: Cytotoxicity against human HaCaT cells. It is filed as functional, cell-based.
Assay [2] has as its system BJAB. Put plainly: Cytotoxicity against human BJAB cells. It is filed as functional, cell-based.
For the next assay, the system named is Jurkat. Kind of assay: Cytotoxicity against human Jurkat cells. It is filed as functional, cell-based.
The subject of another assay is HBL-100. Kind of assay: Cytotoxicity against human HBL100 cells. It is filed as functional, cell-based.
The test system of another assay is K562. Put plainly: Cytotoxicity against human K562 cells. It is filed as functional, cell-based.
For assay [3], the system named is NALM-6. Kind of assay: Induction of apoptosis in human Nalm-6 cells at 5 nM incubated for 72 hrs by flow cytometric method relative to control. It is filed as functional.
The test system of assay [4] is BJAB. Kind of assay: Induction of apoptosis in human BJAB cells at 5 nM incubated for 72 hrs by flow cytometric method relative to control. It is filed as functional.
The next assay has as its system MCF7. Kind of assay: Induction of apoptosis in human MCF7 cells at 3 nM incubated for 72 hrs by flow cytometric method. It is filed as functional.
Assay [5] in a line: Inhibition of DNA topoisomerase2 (unknown origin). On the set-up: species or system Homo sapiens.
Assay [6] relates to HEK293. Kind of assay: Cytotoxicity against HEK293 cells. To be noted: Homo sapiens. It is filed as cell-based.
The test system of assay [7] is SK-BR-3. Put plainly: Cytotoxicity against human SK-BR-3 cells assessed as reduction in cell viability incubated for 72 hrs by flow cytometry. It is filed as functional, cell-based. To be noted: SK-BR-3, 72 h.
Assay [8] deals with SK-BR-3. Put plainly: Cytotoxicity against human SK-BR-3 cells assessed as reduction in cell viability incubated for 72 hrs in presence of trastuzumab-iCME by flow cytometry. It is filed as functional, cell-based. As to conditions: SK-BR-3, 72 h.
Assay [9] can be described thus: Inhibition of porcine tubulin polymerization by UV/visible spectrophotometry. On the set-up: species or system Sus scrofa.
The test system of assay [10] is A549. Kind of assay: Cytotoxicity against human A549 cells incubated for 48 hrs by MTT assay. It is filed as functional, cell-based. As to conditions: A549, 48 h.
The nature of assay [11]: Cytotoxicity against human BHP-1 cells incubated for 48 hrs by MTT assay. It is filed as cell-based. As to conditions: BHP1, 48 h.
In a further assay the test system is BXPC-3. Kind of assay: Cytotoxicity against human BxPC-3 cells incubated for 48 hrs by MTT assay. It is filed as functional, cell-based. To be noted: BXPC-3, 48 h.
The test system of a further assay is HT-29. Put plainly: Cytotoxicity against human HT-29 cells incubated for 48 hrs by MTT assay. It is filed as functional, cell-based. To be noted: HT-29, 48 h.
For a further assay, the system named is MIA PaCa-2. Put plainly: Cytotoxicity against human Mia PaCa-2 cells incubated for 48 hrs by MTT assay. It is filed as functional, cell-based. To be noted: MIA PaCa-2, 48 h.
Another assay deals with PC-3. Put plainly: Cytotoxicity against human PC-3 cells incubated for 48 hrs by MTT assay. It is filed as functional, cell-based. To be noted: PC-3, 48 h.
Assay [12] can be described thus: Cytotoxicity against human HGF-1 cells incubated for 48 hrs by MTT assay. It is filed as cell-based. To be noted: HGF1, 48 h.
Assay [13] has as its system HEK293. Put plainly: Cytotoxicity against HEK293 cells incubated for 48 hrs by MTT assay. To be noted: Homo sapiens, HEK293, 48 h. It is filed as cell-based.
Another assay relates to KB. Put plainly: Antiproliferative activity against human KB cells incubated for 36 hrs. It is filed as functional, cell-based.
For assay [14], the system named is A549. Put plainly: Antiproliferative activity against human A549 cells incubated for 36 hrs. It is filed as functional, cell-based. As to conditions: A549, 36 h.
The nature of assay [15]: Inhibition of bovine brain tubulin polymerization preincubated for 15 mins followed by GTP addition. The arrangement: species or system Bos taurus.
For a further assay, the system named is RPMI-7951. Kind of assay: Antiproliferative activity against human RPMI-7951 cells incubated for 36 hrs. It is filed as functional, cell-based. As to conditions: RPMI-7951, 36 h.
For assay [16], the system named is P388. Put plainly: Antiproliferative activity against mouse P388 cells incubated for 36 hrs. As to conditions: P388, 36 h. It is filed as functional, cell-based.
A further assay relates to TE-671. Put plainly: Antiproliferative activity against human TE-671 cells incubated for 36 hrs. It is filed as functional, cell-based. To be noted: TE-671, 36 h.
The next assay concerns HCT-8. Kind of assay: Antiproliferative activity against human HCT-8 cells incubated for 36 hrs. It is filed as functional, cell-based. As to conditions: HCT-8, 36 h.
The next assay deals with HeLa. Kind of assay: Cytotoxicity against human HeLa cells after 24 to 72 hrs by Cell Titer Blue assay. It is filed as cell-based.
In assay [17] the test system is P388. Put plainly: Antiproliferative activity against mouse P388 cells incubated for 72 hrs by Coulter counter method. It is filed as functional, cell-based. To be noted: P388, 72 h.
A further assay has as its system KB 3-1. Put plainly: Antiproliferative activity against human KB-31 cells incubated for 96 hrs by spectrophotometric method. It is filed as functional, cell-based. As to conditions: KB 3-1, 96 h.
A short description of assay [18]: Antiproliferative activity against human KB-8511 cells incubated for 96 hrs by spectrophotometric method. It is filed as functional, cell-based. To be noted: KB-ChR-8-5-11, 96 h.
The species named for the next assay is Bos taurus. Kind of assay: Inhibition of [3H]colchicine binding to bovine brain tubulin at 5 uM incubated for 10 mins by DEAE-cellulose filter method relative to control.
A further assay concerns L1210. Put plainly: Cytotoxicity against mouse L1210 cells incubated for 24 hrs. It is filed as functional, cell-based. To be noted: L1210, 24 h.
Assay [19] concerns BJAB. Put plainly: Antiproliferative activity against human BJAB cells incubated for 24 hrs by cell counting based method. It is filed as functional.
Assay [20] relates to NALM-6. Put plainly: Antiproliferative activity against human Nalm-6 cells incubated for 24 hrs by cell counting based method. It is filed as functional. To be noted: NALM-6, 24 h.
For another assay, the species on record is Rattus norvegicus. Put plainly: Inhibition of [3H]colchicine binding to rat brain tubulin at 25 uM relative to control.

Among the data in ChEMBL document CHEMBL4665675 (J Med Chem, 2020) are IC50, Activity and inhibition values, retold here.

pIC50: −log10 of the molar value. Where a SMILES comes first, the peptide text is derived from it. [ ]: non-standard residue; d: D form. The star is where a group is joined. Cholesteryloxycarbonyl = CC(C)CCC[C@@H](C)[C@H]1CC[C@H]2[C@@H]3CC=C4C[C@@H](OC(=O)*)CC[C@]4(C)[C@H]3CC[C@]12C; PEG3 = NCCOCCOCCOCCC(=O)O; Aib = CC(C)(N)C(=O)O; βAla = NCCC(=O)O Bounds are passed on as bounds.

For the compound `COc1cc2c(c(OC)c1OC)-c1ccc(OC)c(=O)cc1[C@@H](NC(=O)CCCCCC(=O)OC1C3CC4CC(C3)CC1C4)CC2` (some centres not stated), in the assay on A549 [1], the pIC50 was ≥ 8.30.

For `CCCCCCCCCCCCCCCCCC(=O)OCc1cn([C@H]2CCc3cc(OC)c(OC)c(OC)c3-c3ccc(OC)c(=O)cc32)nn1`, the pIC50 with HaCaT, in the assay with BJAB [2], with Jurkat, with HBL-100 and in the assay on K562 was 8.46 each time.

Turning to `C=C1Cc2cc(OC)c(OC)c(OC)c2-c2ccc(OC)c(=O)cc21`, the Activity with NALM-6 [3] came out at 71%; in the assay with BJAB [4] it was 48%; with MCF7, 62%.

Compound `CSc1ccc2c(cc1=O)[C@@H](NC(C)=O)CCc1cc(O)c(O)c(O)c1-2` showed a pIC50 in assay [5] of 5.05.

In the assay on HEK293 [6], `COc1cc2c(c(OC)c1OC)-c1ccc3[nH]c(C)c(C)c3c1[C@@H](NC(C)=O)CC2` showed a pIC50 of 5.70.

On to `CC(C)CCC[C@@H](C)[C@H]1CC[C@H]2[C@@H]3CC=C4C[C@@H](OC(=O)NCCC(=O)NCCC(=O)N[C@@H](CCC(=O)O)C(=O)N[C@@H](CCC(=O)O)C(=O)NCCOCCOCCOCCC(=O)NCCOCCOCCOCCC(=O)NC(C)(C)C(=O)NC(C)(C)C(=O)NC(C)(C)C(=O)NC(C)(C)C(=O)N[C@@H](Cc5c[nH]c6ccccc56)C(=O)N[C@@H](Cc5ccc(O)cc5)C(=O)N[C@@H](C)C(=O)N[C@@H](Cc5c[nH]c6ccccc56)C(=O)N[C@@H](Cc5ccc(O)cc5)C(=O)N[C@@H](C)C(=O)N[C@@H](Cc5c[nH]c6ccccc56)C(=O)N[C@@H](Cc5ccc(O)cc5)C(=O)N5CCC[C@H]5C(=O)N5CCC[C@H]5C(=O)N[C@H](C(=O)N[C@H](C(N)=O)C(C)C)C(C)C)CC[C@]4(C)[C@H]3CC[C@]12C` ({Cholesteryloxycarbonyl-βAla-βAla}-EE[PEG3][PEG3][Aib][Aib][Aib][Aib]WYAWYAWYPPVV-NH2), for which the pIC50 was < 5.00 with SK-BR-3 [7] and 9.96 with SK-BR-3 [8].

As to `CCCCCCCCCCCCCCCC(=O)OCc1cn([C@H]2CCc3cc(OC)c(OC)c(OC)c3-c3ccc(OC)c(=O)cc32)nn1`, the pIC50 with HaCaT, in the assay with BJAB [2], in the assay with Jurkat, with HBL-100 and in the assay on K562 was 8.46 each time.

In assay [9], `COc1ccc2c(c1O)COCc1cc(OC)c(OC)c(OC)c1-2` gave a pIC50 of 6.00.

As for `COc1cc2c(c(OC)c1OC)-c1ccc(Nc3ccc(Cl)c(C(F)(F)F)c3)c(=O)cc1[C@@H](NC(C)=O)CC2`, the pIC50 (in the assay with A549 [10]; in assay [11]; in the assay with BXPC-3; in the assay on HT-29; in the assay on MIA PaCa-2; with PC-3) was 7.46 each time. Also, the pIC50 (in assay [12]; with HEK293 [13]) was 7.46 each time.

On to `COc1cc2c(c(OC)c1OC)-c1ccc(SC)c(=O)cc1[C@@H](CO)C2`, for which the pIC50 was 6.84 in the assay on KB; 6.62 in the assay on A549 [14]; 5.44 in assay [15]; 6.87 in the assay on RPMI-7951; 6.84 with P388 [16]; 5.88 with TE-671. Moreover, in the assay on HCT-8, the pIC50 is 6.80.

With `COc1cc2c(c(OC)c1OC)-c1ccc(OC)c(=O)cc1[C@@H](NC(C)=O)CC2` [COLCHICINE], the pIC50 (in the assay on A549 [10]; in assay [11]; in the assay with BXPC-3; with HT-29; in the assay on MIA PaCa-2; with PC-3) was 7.38 in each case. Moreover, the pIC50 is 7.24 in the assay on HeLa; 7.54 in the assay on P388 [17]; 8.05 with KB 3-1; 7.38 in assay [12]; 7.38 in the assay on HEK293 [13]; 6.27 in assay [18]. In addition, the pIC50 in assay [9] was 5.41.

Compound `COc1c2c(cc3c1-c1ccc(OC)c(=O)cc1[C@@H](NC(C)=O)CC3)OCO2` returned an inhibition in the assay listed under Bos taurus of 54%. Also, the pIC50 with L1210 is 7.70.

Take `CCOC(=O)OC[C@H]1Cc2cc(OC)c(OC)c(OC)c2-c2ccc(SC)c(=O)cc21`: the pIC50 in the assay with KB was 7.96; in the assay on A549 [14], 12.00; in assay [15], 5.43; with RPMI-7951, 12.00; with P388 [16], 7.80; with TE-671, 12.00. The same compound had a pIC50 in the assay with HCT-8 of 6.75.

As to `COc1cc2c(c(OC)c1OC)C1=C(C=C(O)C(=O)CC1)CO[C@@H]2C`, the pIC50 in the assay with BJAB [19] and in the assay on NALM-6 [20] was 6.00 in each case.

Consider `COc1cc2c(c(OC)c1OC)-c1ccc(OC)c(=O)cc1[C@@H](NC(=O)CCCCCCC(=O)C1C3CC4CC(C3)CC1C4)CC2` (some centres not stated), for which the pIC50 with A549 [1] was ≥ 8.30.

The compound `COc1cc2c(c(OC)c1OC)-c1cccc(=O)cc1[C@@H](NC(C)=O)CC2` had an inhibition in the assay listed under Rattus norvegicus of 87%.

As for `C=C1Cc2cc(OC)c(OC)c(OC)c2-c2ccc(SC)c(=O)cc21`, the pIC50 is 6.85 in the assay with KB; 6.60 in the assay on A549 [14]; 5.62 in [15]; 10.08 in the assay on RPMI-7951; 7.66 in the assay with P388 [16]; 10.08 in the assay with TE-671. In addition, the pIC50 in the assay with HCT-8 was 6.80.
